The nature of test [1]: Rat Kidney Ischemic Re-perfusion Model. The note with it: for amount of creatine in the blood / amount of urea nitrogen in the blood: in mg/dL (unit assumed). Type of test: in vivo. How it is done: (4) Rat Kidney Ischemic Re-perfusion Model
The right kidney of a SD male rat was taken out, and the left kidney artery was clumped, and then, re-perfused to give a kidney ischemic re-perfusion model. The effect of the compounds of Examples 71, 89 and 100 on the kidney ischemic re-perfusion model was estimated.
The compound of Example 71 was administered intravenously to the rat at a dose of 3 mg/kg 5 minutes before the ischemic. Twenty-four hours later, the blood was collected from the tail vein, and the amounts of creatine and urea nitrogen were determined. The amount of creatine in the blood was 2.19±0.21 (mean±s.e.) in the control group; 1.4±0.11 (mean±s.e.) in the group treated with the compound of Example 71, and the amount of urea nitrogen in the blood was 78.8±5.6 (mean s.e.) in the control group, and 54.1±5.0 (mean±s.e.) in the group treated with the compound of Example 71.
The compound of Example 89 was administered intravenously to the rat at a dose of 3 mg/kg 5 minutes before the ischemic and the re-perfusion. Forty-eight hours later, the blood was collected from the tail vein, and the amounts of creatine and urea nitrogen were determined. The amount of creatine in the blood was 4.31±0.53 (mean±s.e.) in the control group; 2.34±0.46 (mean±s.e.) in the group treated with the compound of Example 89, and the amount of urea nitrogen in the blood was 155.1±15.4 (mean±s.e.) in the control group, and 99.1±16.0 (mean±s.e.) in the group treated with the compound of Example 89.
The compound of Example 100 was administered orally to the rat at a dose of 30 mg/kg one hour before the ischemic. Forty-eight hours later, the blood was collected from the tail vein, and the amounts of creatine and urea nitrogen were determined. The amount of creatine in the blood was 2.48±0.59 (mean±s.e.) in the control group; 1.53±0.20 (mean±s.e.) in the group treated with the compound of Example 100, and the amount of urea nitrogen in the blood was 91.3±20.1 (mean±s.e.) in the control group, and 63.1±10.3 (mean±s.e.) in the group treated with the compound of Example 100.

Another test has as its target protein kinase C (PKC). Briefly: Protein Kinase C (PKC) Inhibitory Activity. It counts as biochemical. The note with it: rat brain PKC, H1 histone substrate, 10 μM [γ-32P]ATP, 30° C., 30 minutes. How it is done:
(1) Protein Kinase C (PKC) Inhibitory Activity
Method for determining PKC activity:
The purification of PKC using rat's brain soluble fractions was carried out by a method of Kikkawa et al. (cf. Ushio Kikkawa, Yoshimi Takai, Ryoji Minakuchi, Sinichi Inohara and Yasutomi Nishizuka: The Journal of Biological Chemistry, vol. 257, No. 22, pp. 13341-13348 (1982)). PKC activity was determined by the transfer of radio activity from the [γ-^32 P] adenosine triphosphate (ATP) to H1 histone derived from calf thymus in the presence of 20 mM Tris-HCl buffer (pH 7.5), H1 histone derived from calf thymus (200 μg/ml), 10 μM [γ-^32P]ATP, 5 mM magnesium acetate, 8 μg/ml phosphatidyl serine, 2 μg/ml diacylglycerol and 0.3 mM Ca^2+. The test compound was dissolved in dimethylformamide, and the test compound solution was added to the assay system so that the final concentration thereof was adjusted to 0.8%. The reaction mixture was incubated at 30° C. for 30 minutes, and the reaction was quenched with 25% trichloroacetic acid. The acid-insoluble protein was collected on a nitrocellulose membrane by suction filtration. The radio activity of ^32 P was determined by scintillation counter. The PKC inhibitory activity of the test compounds was expressed by IC50, which is a concentration of the test compound to be required to reduce the PKC activity by 50%.

Test [2] in a line: Phorbol Ester (TPA)-induced Mouse Auricle Edema, Acanthosis Model. It counts as in vivo. The note with it: mouse (ICR); for increase in the thickness of auricle: after 24 hours, control 215±40 μm, mean±s.e. The procedure:
(5) Phorbol Ester (TPA)-induced Mouse Auricle Edema, Acanthosis Model
A 200 μg/ml phorbol ester (TPA) (10 μl) was applied to the one side to the ear of a female mouse (ICR). Twenty-four hours later, the thickness of the auricle of the mouse was determined with using a dialthickness gage, and the increase in the thickness of auricle was calculated. A test compound was dissolved in acetone, and the solution of a test compound was applied to the both sides of the ear 30 minutes before the application of TPA.
The compound of Example 88 was applied to the ear at a dose of 20 μl of 0.3% or 1% solution. The increase in the thickness of auricle in the control group is 215±40 μm (mean±s.e.) after 24 hours, while 87±53 μm (mean±s.e.) in the group treated with the compound of Example 88 in 0.3%, and 67±23 μm (mean±s.e.) in the group treated with the compound of Example 88 in 1%.

The nature of test [3]: Mouse Atopic Dermatitis Model (TNCB-induced increase in auricle thickness). Type of test: in vivo. The note with it: mice (Balb/c), once a day for two weeks. The procedure:
(6) Mouse Atopic Dermatitis Model:
1% […] (TNCB), (10 μl) was applied to each side of the ear of female mice (Balb/c), once every two days for 24 days. Twenty-four days later, the mice were grouped, and the auricle thickness of the mouse was determined by using a dial thickness gage, and the increase in the thickness of auricle was calculated. The compounds of Examples 88 and 89 were dissolved in acetone in a concentration of 1%. The compound of Example 182 was dissolved in a mixture of acetone:methanol in a concentration of 0.75%. Twenty-four days after the beginning of the experiment, the solution of a test compound was applied to each side of the ear 30 minutes before and after the application of TNCB, once a day for two weeks.

The test system of the next test is anti-DNA antibody. In words: Mouse cGVHD (chronic graft-versus-host disease model), anti-DNA antibody in blood by ELISA. It counts as in vivo. The note with it: mice; for amount of anti-DNA antibody in the blood: mean±s.e. How it is done: (3) Mouse cGVHD (chromic Graft-versus-host disease model)
Female mice (DBA/2NCrj) were subjected to an operation of cervical vertebra dislocation, and the spleen was taken out to give the spleen cells preparation. The preparation were adjusted to 37.5×10^7 cells/ml, and administered to the BDF1 female mice on the tail vein at a dose of 200 μl per a mouse. Two weeks later, the blood was collected in the absence of heparin, and anti-DNA antibody therein was determined by ELISA.
The compound of Example 182 was administered orally to the mice at a dose of 30 to 50 mg/kg once a day for two weeks, and the effect of the test compound on cGVHD was determined.
The amount of anti-DNA antibody in the blood was determined with OD405. The amounts of anti-DNA antibody were 0.348±0.111 (mean±s.e.) in the control group, 0.255±0.062 (mean±s.e.) in the group treated with the compound of Example 182 at a dose of 30 mg/kg, and 0.094±0.026 (mean±s.e.) in the group treated with the compound of Example 182 at a dose of 50 mg/kg.
Further, the compound of Example 100 was also administered orally to the mice at 30 mg/kg once a day for two weeks, and the effect of the compound on cGVHD was also determined.
The amount of anti-DNA antibody in the blood was determined with OD405. The amounts of anti-DNA antibody were 0.258±0.084 (mean±s.e.) in the control group, and 0.177±0.061 (mean±s.e.) in the group treated with the compound of Example 100 at a dose of 30 mg/kg.

A further test can be described thus: Mouse Collagen Arthritis. It counts as in vivo. Particulars: orally once a day. How it is done:
(2) Mouse Collagen Arthritis
Bovine II-type collagen (provided by Collagen Gijyutsu Kensyukai) (0.1%) was emulsified with Complete Fleund's adjuvant (CFA) (50%) (manufactured by DIFCO, Ltd.), and the emulsion thus obtained was injected intracutaneously to mice at the tail (primary sensitization). Three weeks later, bovine II-type collagen (0.1%) was injected intraperitoneally again to the mice (secondary sensitization). Three weeks later, the swelling of limbs of the mice was observed, and evaluated by four-degree as 0 to 3 each limb. The degree (0 to 3) each limb was added, and the results were used a score of the arthritis. That is, the maximum degree is 12 (degree 3×4 limb). The test compound was administered orally to the mice once a day, which started after two weeks from the primary sensitization.

Usually IC50 stands for the concentration at which inhibition is half-maximal. Lower therefore signals inhibition by little substance. For the molecule `CN1CCN(CC2CN(C(=O)/C=C/C(=O)c3ccc(OCC(=O)Nc4nc5ccccc5s4)c(F)c3)CCO2)CC1` (stereo not shown) [Example 71], the “amounts of both of creatine and urea nitrogen compared with the control group” value (“amounts … compared with the control group” for short) in test [1] (i.v. 3 mg/kg 5 minutes before the ischemic, 24 hours later) is on record as “significantly reduced”. The “amount of creatine in the blood” value in test [1] (i.v. 3 mg/kg 5 minutes before the ischemic, 24 hours later, control 2.19±0.21, mean±s.e.) is 1.4±0.11. For the same molecule, the “amount of urea nitrogen in the blood” value in test [1] (i.v. 3 mg/kg 5 minutes before the ischemic, 24 hours later, control 78.8±5.6, mean±s.e.) is 54.1±5.0. Besides, the IC50 against protein kinase C (PKC) was found to be 0.8 µM.
At protein kinase C (PKC), `COc1cc(C(=O)/C=C/C(=O)N2CCC(N3CCN(C)CC3)CC2)ccc1OCC(=O)Nc1nc2ccccc2s1` [Example 88] displayed a half-inhibitory concentration (IC50) of 0.1 µM. For the same molecule, the “increase in auricle thickness compared with the control group” value in test [2] (topical 20 μl of 0.3% or 1% solution) is reported as “significantly reduced”. Also, the results for the “increase in the thickness of auricle” value in test [2] (topical 20 μl of 0.3% solution) and in test [2] (topical 20 μl of 1% solution) were 87±53 μm and 67±23 μm, respectively.
For `COc1cc(C(=O)/C=C/C(=O)N2CCOC(CN3CCN(C)CC3)C2)ccc1OCC(=O)Nc1nc2ccccc2s1` (stereo not shown) [Example 89], the “amounts … compared with the control group” value in test [1] (i.v. 3 mg/kg 5 minutes before the ischemic and the re-perfusion, 48 hours later) is reported as “significantly reduced”. Besides, in test [1] (i.v. 3 mg/kg 5 minutes before the ischemic and the re-perfusion, 48 hours later, control 4.31±0.53, mean±s.e.), the “amount of creatine in the blood” value was 2.34±0.46. Moreover, the “amount of urea nitrogen in the blood” value in test [1] (i.v. 3 mg/kg 5 minutes before the ischemic and the re-perfusion, 48 hours later, control 155.1±15.4, mean±s.e.) was found to be 99.1±16.0. In addition, in test [3] (topical 1% in acetone), the “inhibition of the increase in the auricle thickness” value was “about 25%”. Also, the IC50 on protein kinase C (PKC) came out at 0.3 µM.
On to `COc1cc(C(=O)/C=C/C(=O)N2CCC(N3CCCN(C)CC3)CC2)ccc1OCC(=O)Nc1nc2ccccc2s1` [Example 100], for which the “amounts … compared with the control group” value in test [1] (orally 30 mg/kg one hour before the ischemic, 48 hours later) was “reduced”. The “amount of creatine in the blood” value in test [1] (orally 30 mg/kg one hour before the ischemic, 48 hours later, control 2.48±0.59, mean±s.e.) came to 1.53±0.20. In addition, the “amount of urea nitrogen in the blood” value in test [1] (orally 30 mg/kg one hour before the ischemic, 48 hours later, control 91.3±20.1, mean±s.e.) is reported as 63.1±10.3. In addition, the “anti-DNA antibody in the blood compared with the control group” value in the test on anti-DNA antibody (orally 30 mg/kg once a day for two weeks) is “reduced the anti-DNA antibody in the blood”. In the test with anti-DNA antibody (orally 30 mg/kg once a day for two weeks, control 0.258±0.084), the “amount of anti-DNA antibody in the blood” value came out at 0.177±0.061 OD405. This molecule returned an IC50 against protein kinase C (PKC) of 0.3 µM.
On to `O=C(COc1ccc(C(=O)/C=C/C(=O)N2CCN(O)CC2)cc1C(F)(F)F)Nc1nc2ccccc2s1` [Example 160], for which the “score of arthritis in comparison with the control mice” value (from here on “score of arthritis in comparison”) in “Mouse Collagen Arthritis” (50 mg/kg) is “significantly reduced”. Also, the concentration for half-maximal inhibition (IC50) at protein kinase C (PKC) is 0.6 µM.
With `COc1cc(OCC(=O)Nc2nc3ccccc3s2)ccc1C(=O)/C=C/C(=O)N1CCC(N2CCCN(C)CC2)CC1` [Example 182], in test [3] (topical 0.75% in acetone:methanol), the “inhibition of the increase in the auricle thickness” value is listed as “about 25%”. For the same molecule, in “Mouse Collagen Arthritis” (30 to 50 mg/kg), the “score of arthritis in comparison” value is “significantly reduced”. For the same molecule, the “amount of anti-DNA antibody in the blood” value is given as 0.255±0.062 OD405 with anti-DNA antibody (orally 30 mg/kg once a day for two weeks, control 0.348±0.111) and 0.094±0.026 OD405 in the test with anti-DNA antibody (orally 50 mg/kg once a day for two weeks, control 0.348±0.111). The “anti-DNA antibody in the blood compared with the control group” value in the test with anti-DNA antibody (orally 30 to 50 mg/kg once a day for two weeks) is given as “reduced the anti-DNA antibody in the blood dose-dependently”. In addition, at protein kinase C (PKC), the IC50 stood at 0.08 µM.
As to `Cc1c(OCC(=O)Nc2nc3ccccc3s2)ccc(C(=O)/C=C/C(=O)N2CCC(N3CCCN(C)CC3)CC2)c1C` [Example 192], in “Mouse Collagen Arthritis” (50 mg/kg), the “score of arthritis in comparison” value was “significantly reduced”. On protein kinase C (PKC), this molecule yielded an IC50 of 0.8 µM.
In the same order, the values of `Cc1cc(OCC(=O)Nc2nc3ccccc3s2)ccc1C(=O)/C=C/C(=O)N1CCC(N2CCCN(C)CC2)CC1` [Example 197] are “significantly reduced” and 0.3 µM.

(Values after patent US6140330A, “Thiazole derivative” (Otsuka Pharmaceutical Company, Limited, priority 1996, dated 2000).)
